Bridge positions count the residues as written; N and C are the ends. Square brackets hold non-standard residues; d marks the D form. Peptide text beside a SMILES is read from it. * marks the point of attachment. Bip = N[C@@H](Cc1ccc(-c2ccccc2)cc1)C(=O)O; Phe(3-Me) = Cc1cccc(C[C@H](N)C(=O)O)c1; Cha = N[C@@H](CC1CCCCC1)C(=O)O; Carboxymethyl = O=C(O)C*; Orn = NCCC[C@H](N)C(=O)O; Aun = NCCCCCCCCCCC(=O)O; Dab = NCC[C@H](N)C(=O)O; Dap = NC[C@H](N)C(=O)O; AEEA = NCCOCCOCC(=O)O
Target: T1, PD-1/PD-L1 interaction (PE-labeled human PD-L1-Ig binding to Jurkat cell line over-expressing human PD-1) (Homo sapiens, UniProt Q15116)
T1 construct: expressed in transfected cells; host or cells: Jurkat
Experiment: Jurkat-PD-1 Cell Binding High-Content Screening Assay (CBA)
Format: cell-based
Conditions: Jurkat cell line over-expressing human PD-1; PE-labeled PD-L1-Ig 20 nM final; read-out: Jurkat hPD1-PDL1 IC50
How it was run: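 Binding of fluorescent PD-L1-Ig (phycoerythrin on Ig tag, 20 nM final, 1 h) measured by high-content imaging of fixed, Hoechst-counterstained Jurkat-hPD-1 cells. Compound added 2 h at 37° C beforehand, in DMEM with 10% fetal calf serum.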

T1 sequence (Q15116 25-288): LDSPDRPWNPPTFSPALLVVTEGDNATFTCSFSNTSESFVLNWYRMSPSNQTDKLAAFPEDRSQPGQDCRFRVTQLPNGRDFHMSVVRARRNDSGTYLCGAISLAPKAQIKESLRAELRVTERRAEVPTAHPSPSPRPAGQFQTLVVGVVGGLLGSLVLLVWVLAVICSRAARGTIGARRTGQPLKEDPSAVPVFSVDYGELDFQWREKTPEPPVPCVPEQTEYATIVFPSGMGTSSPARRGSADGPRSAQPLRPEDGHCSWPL

SMILES | IC50
Cc1cccc(C[C@@H]2NC(=O)[C@H](CC(=O)O)NC(=O)[C@H](Cc3ccc(OCC(=O)O)cc3)NC(=O)[C@H](CN)NC(=O)CSC[C@@H](C(=O)NCCOCCOCC(=O)N[C@@H](CCN)C(=O)NCCCCCCCCCCC(=O)O)NC(=O)[C@H](CN)NC(=O)[C@H](C(C)C)NC(=O)[C@H](CC3CCCCC3)NC(=O)[C@H](CCN)NC(=O)[C@@H](CC(C)C)NC(=O)[C@H](CCCN)NC(=O)[C@H](CCC(=O)O)NC(=O)[C@H](Cc3ccc(-c4ccccc4)cc3)NC(=O)[C@H](C(C)C)NC2=O)c1 [Compound 2658] ({CH2CO}-[Dap]Y(Carboxymethyl)D[Phe(3-Me)]V[Bip]E[Orn][dL][Dab][Cha]V[Dap]C[AEEA][Dab][Aun]-OH; thioether N-14) | 18 nM
Cc1cccc(C[C@@H]2NC(=O)[C@H](CC(=O)O)NC(=O)[C@H](Cc3ccc(OCC(=O)O)cc3)NC(=O)[C@H](CN)NC(=O)CSC[C@@H](C(=O)N[C@@H](CCN)C(=O)NCCOCCOCC(=O)NCCCCCCCCCCC(=O)O)NC(=O)[C@H](CN)NC(=O)[C@H](C(C)C)NC(=O)[C@H](CC3CCCCC3)NC(=O)[C@H](CCN)NC(=O)[C@@H](CC(C)C)NC(=O)[C@H](CCCN)NC(=O)[C@H](CCC(=O)O)NC(=O)[C@H](Cc3ccc(-c4ccccc4)cc3)NC(=O)[C@H](C(C)C)NC2=O)c1 [Compound 2661] ({CH2CO}-[Dap]Y(Carboxymethyl)D[Phe(3-Me)]V[Bip]E[Orn][dL][Dab][Cha]V[Dap]C[Dab][AEEA][Aun]-OH; thioether N-14) | 10.9 nM

Further lines, results first:

IC50 | SMILES
14.4 nM | CC(C)C[C@H]1NC(=O)[C@H](CCCN)NC(=O)[C@H](CCC(=O)O)NC(=O)[C@H](Cc2ccc(-c3ccccc3)cc2)NC(=O)[C@H](C(C)C)NC(=O)[C@H](Cc2c[nH]c3ccccc23)NC(=O)[C@H](CC(=O)O)NC(=O)[C@H](Cc2ccc(OCC(=O)O)cc2)NC(=O)[C@H](CN)NC(=O)CSC[C@@H](C(=O)NCCOCCOCC(=O)N[C@@H](CCN)C(=O)NCCCCCCCCCCC(=O)O)NC(=O)[C@H](CCCCN)NC(=O)[C@H](C(C)C)NC(=O)[C@H](CC2CCCCC2)NC(=O)[C@H](CCN)NC1=O [Compound 2657] ({CH2CO}-[Dap]Y(Carboxymethyl)DWV[Bip]E[Orn][dL][Dab][Cha]VKC[AEEA][Dab][Aun]-OH; thioether N-14)
11.5 nM | Cc1cccc(C[C@@H]2NC(=O)[C@H](CC(=O)O)NC(=O)[C@H](Cc3ccc(OCC(=O)O)cc3)NC(=O)[C@H](CN)NC(=O)CSC[C@@H](C(=O)NCCOCCOCC(=O)N[C@@H](CCN)C(=O)NCCCCCCCCCCC(=O)O)NC(=O)[C@H](CCCN)NC(=O)[C@H](C(C)C)NC(=O)[C@H](CC3CCCCC3)NC(=O)[C@H](CCN)NC(=O)[C@@H](CC(C)C)NC(=O)[C@H](CCCN)NC(=O)[C@H](CCC(=O)O)NC(=O)[C@H](Cc3ccc(-c4ccccc4)cc3)NC(=O)[C@H](C(C)C)NC2=O)c1 [Compound 2659] ({CH2CO}-[Dap]Y(Carboxymethyl)D[Phe(3-Me)]V[Bip]E[Orn][dL][Dab][Cha]V[Orn]C[AEEA][Dab][Aun]-OH; thioether N-14)
11.4 nM | CC(C)C[C@H]1NC(=O)[C@H](CCCN)NC(=O)[C@H](CCC(=O)O)NC(=O)[C@H](Cc2ccc(-c3ccccc3)cc2)NC(=O)[C@H](C(C)C)NC(=O)[C@H](Cc2c[nH]c3ccccc23)NC(=O)[C@H](CC(=O)O)NC(=O)[C@H](Cc2ccc(OCC(=O)O)cc2)NC(=O)[C@H](CN)NC(=O)CSC[C@@H](C(=O)N[C@@H](CCN)C(=O)NCCOCCOCC(=O)NCCCCCCCCCCC(=O)O)NC(=O)[C@H](CCCCN)NC(=O)[C@H](C(C)C)NC(=O)[C@H](CC2CCCCC2)NC(=O)[C@H](CCN)NC1=O [Compound 2660] ({CH2CO}-[Dap]Y(Carboxymethyl)DWV[Bip]E[Orn][dL][Dab][Cha]VKC[Dab][AEEA][Aun]-OH; thioether N-14)
